The source made the active and inactive calls. How the calls were made is not given here.
target: glucose-6-phosphate dehydrogenase-6-phosphogluconolactonase (Plasmodium falciparum 3D7); assay: PfG6PD inhibitor potency, dose response, biochemical, fluorescence intensity (AID 504765); conditions: Recombinant PfG6PD enzyme, fluorescence intensity (NADPH)

Row | SMILES | IC50
1 | COc1ccc(NC(C)C(=O)N/N=C/c2cc(Br)ccc2OC)cc1 (stereo not drawn) | 8.77 µM
2 | COc1ccc(N=C2C(=S)N(c3ccc(OC)cc3)C(=NS(=O)(=O)c3ccccc3)N2c2ccccc2)cc1 | 2.38 µM
3 | O=C1C(c2cc(=O)c3ccccc3[nH]2)=C(O)c2ccccc21 | 8.25 µM
4 | O=S(=O)(Nc1cc(Sc2cccc3cccnc23)c(O)c2ccccc12)c1ccc(F)cc1 | 1.22 µM
5 | CC(C)(C)NC(=O)COc1ccc(CNc2ccc3[nH]c(=O)[nH]c3c2)cc1 | 11.7 µM
6 | O=[N+]([O-])c1cnc(Sc2ccncn2)c([N+](=O)[O-])c1 | 9.62 µM
7 | O=C1NC(=O)C(=Cc2ccc(-c3ccccc3[N+](=O)[O-])o2)C(=O)N1 | 10.9 µM
8 | CC1(OC(=O)C2CCCC2)C(=O)C=C2C=C(c3ccsc3)N(Cc3ccc4c(c3)OCO4)C=C2C1=O (stereo not drawn) | 11.1 µM
9 | Cc1cccc(-n2c(=S)[nH]c3sc4c(c3c2=O)CCc2ccccc2-4)c1 | inactive
10 | O=C(CNC(=O)c1cccs1)NCC(=O)OCC(=O)c1ccc([N+](=O)[O-])cc1 | 16.7 µM
11 | O=c1c2ccc(F)cc2sn1-c1ccccc1 | 1.98 µM
12 | CCN(CC)CCNC(=O)CCCCn1c(=S)[nH]c2c([nH]c3ccc(OC)cc32)c1=O | inactive
13 | O=C1Nc2cc(C(=O)NCCCN3CCCC3)ccc2S/C1=C\c1ccccc1 | 9.3 µM
14 | CC1(OC(=O)C2CCCC2)C(=O)C=C2C=C(c3ccsc3)N(CC3CC3)C=C2C1=O (stereo not drawn) | 7.8 µM
15 | CCS(=O)(=O)N1CCN(c2ccc([N+](=O)[O-])c(NC(C)c3ccccc3)c2)CC1 (stereo not drawn) | 14.8 µM
16 | COC(=O)C1=C(C(=O)OC)SC2(S1)C(C(=O)OC)=C(C(=O)OC)Sc1c2ssc1=O | 1.4 µM
17 | CC(=NNC(=S)N1CCN(c2ccccn2)CC1)c1nccs1 | 5.6 µM
18 | [O-]/[N+](=C/c1cccnc1)c1ccc(Br)cc1 | 1.11 µM
19 | COc1ccc(C2(CNC(=O)c3ccc(OC)c([N+](=O)[O-])c3)CCCCC2)cc1OC | 8.33 µM
20 | C/C(Cn1nnc([N+](=O)[O-])n1)=N\NC(=O)c1ccc(O)cc1 | 14.6 µM
21 | NS(=O)(=O)c1ccc(-c2ccc(C=C3C(=O)NC(=O)NC3=O)o2)cc1 | 3.14 µM
22 | CN(C)c1ccc(C=c2c3cc(O)ccc3n3c2cc(-c2ccccc2)[n+]3C)cc1 | 9.89 µM

Row | SMILES | IC50
23 | C/C(Cn1nnc([N+](=O)[O-])n1)=N\NC(=O)c1ccccc1O | 7.39 µM
24 | O=C(O)C(Cc1ccccc1)N1C(=O)C=CC1=O (stereo not drawn) | 6.01 µM
25 | c1cc(CNc2ccc3c(c2)OCO3)ccn1 | inactive
26 | N#C/C(C(=O)Nc1ccc(Cl)cc1)=C(/S)Nc1ccccc1 | 1.89 µM
27 | COc1cc(/C=C2\CC/C(=C\c3cc(OC)c(O)c(OC)c3)C2=O)cc(OC)c1O | 17.1 µM
28 | N#Cc1ccc(Oc2cccc3cccnc23)c([N+](=O)[O-])c1 | 5.66 µM
29 | CC(=O)Nc1ccc2c(c1)Cc1cc(N3C(=O)C=CC3=O)ccc1-2 | 19.3 µM
30 | c1ccc(-c2nc(N3CCOCC3)s[n+]2-c2ccccc2)cc1 | 3.97 µM
31 | Cc1ccc(-c2nn(C)c(=O)c3ccccc23)cc1CNC(=O)/C=C/c1ccccc1 | 4.14 µM
32 | CC1(C)CC2(CC(c3ccccc3F)c3ccc(O)c(O)c3O2)NC(=S)N1 (stereo not drawn) | 12.8 µM
33 | COc1cc(NCc2ccccc2)c2ncn(Cc3ccccc3)c2c1 | > 80 µM (inactive)
34 | Cc1c(N=C2C=C(Br)C(=O)C(Br)=C2)c(=O)n(-c2ccccc2)n1C | 7.32 µM
35 | Cc1c(/C=C/C(=O)c2ccc(Cl)s2)cnn1C | 9.12 µM
36 | O=C(Cn1sc2ccccc2c1=O)NC12CC3CC(CC(C3)C1)C2 | 1.79 µM
37 | CN(C)c1nc(=NCc2cccs2)ss1 | 11.9 µM
38 | O=c1c2ccccc2sn1-c1ccccc1 | 1.15 µM
39 | O=C(O)c1ccc(-n2c(-c3cc(-c4ccco4)[nH]n3)n[nH]c2=S)cc1 | inactive
40 | Clc1cccc(Cl)c1CNc1ccc(N2CCCC2)cc1 | 3.79 µM
41 | COc1cc(CN2CCN(CCCc3ccccc3)C(CCO)C2)cc(OC)c1O (stereo not drawn) | 7.68 µM
42 | Cn1cc(S(=O)(=O)CC(=O)N2CCc3ccccc32)c2ccccc21 | inactive
43 | O=C(CSc1nc2ccc(Cl)cc2[nH]1)NC1CCCc2ccccc21 (stereo not drawn) | 15.6 µM

Source: PubChem BioAssay AID504765 (Sanford-Burnham Center for Chemical Genomics, 2011)
